One compound from paper PMC9386018, “A lymphatic-absorbed multi-targeted kinase inhibitor for myelofibrosis therapy” (Nature Communications, 2022) can be followed below.

The structures appear in SMILES notation.

This assay relates to pERK1/2 (pT202/pY204) in splenocytes. Nature of the assay: MPL^W515L MF mouse model: pERK1/2 in splenocytes by flow cytometry. The settings on record: MPL^W515L mice, oral 400 mg kg^−1 daily, 28 d. The assay is classed as in vivo. The protocol:
The human megakaryoblastic cell line, SET-2 (ATCC), was maintained in RPMI 1640 supplemented with 20% FBS and incubated for 16 h at 10^6 cells mL^−1 with LP-182 or vehicle (DMSO; dimethyl sulfoxide), then washed in ice-cold PBS, and collected for flow cytometry analysis. Single-cell suspensions of mouse spleen were prepared from MPL^W515L MF mice (below) in RPMI 1640 supplemented with 5% FCS. Red blood cells were lysed by ammonium chloride-mediated red cell lysis (RCL) buffer and passed through a nylon mesh, and then cells were counted. For intracellular phospho-protein staining, SET-2 or spleen cells were fixed and then permeabilized using BD Phospho-flow fixation buffer and Perm-Buffer III (BD biosciences) according to the manufacturer’s protocol. Intracellular phospho-protein staining was performed using fluorochrome-conjugated antibodies, pAKT (pS473)-Alexa Fluor 647 (MB89-61) or pERK1/2 (pT202/pY204)-Alexa Fluor 647 (20 A). […] Flow cytometry was performed on a FACS Fortessa (Becton, Dickinson and Co.) using FACSDiVa software, and data analyzed using FlowJo software (Tree Star). […]
Generation of the MPL^W515L mutant MF mouse model was similar to previously described methods. […] Development of MF was evaluated by spleen volumes using MRI beginning ~14 d following bone marrow transplantation (BMT) as outlined below, continuing weekly until end of the study. […]
For orientation: A flow cytometer gives signals particle by particle.

`O=C(NOCCOCCOCCOCCC(=O)N1CCN(c2cnc3ccc(-c4cnc(Cl)c(NS(=O)(=O)c5ccc(F)cc5)c4)cc3n2)CC1)c1ccc(F)c(F)c1Nc1ccc(I)cc1F` [LP-182, N-(2-(2-(2-(3-(4-(7-(6-chloro-5-((4-fluorophenyl)sulfonamido)pyridin-3-yl)quinoxalin-2-yl)piperazin-1-yl)-3-oxopropoxy)ethoxy)ethoxy)ethoxy)-3,4-difluoro-2-((2-fluoro-4-iodophenyl)amino)benzamide]: the “active ERK1/2 level in splenocytes” value was “reduced active AKT and ERK1/2 levels to those comparable to healthy control mice”.
